Measurements: ChEMBL document CHEMBL1142572, “A Madagascar Sponge Batzella sp. as a source of alkylated iminosugars” (2005)

System: Staphylococcus epidermidis
Assay: Antimicrobial activity against Staphylococcus epidermidis ATCC 12228
Type: functional

SMILES | MIC [µg/mL]
CCCCCCCCCCC(O)C[C@H]1C[C@H](O)[C@@H](O)[C@@H](CO)N1 (stereo partly drawn) [BATZELLASIDE A] | ≤ 6.3
CCCCCCCCCC(O)C[C@H]1C[C@H](O)[C@@H](O)[C@@H](CO)N1 (stereo partly drawn) [BATZELLASIDE B] | ≤ 6.3
CCCCCCCCCCCC(O)C[C@H]1C[C@H](O)[C@@H](O)[C@@H](CO)N1 (stereo partly drawn) [BATZELLASIDE C] | ≤ 6.3
